Laboratory results taken from PubChem BioAssay (NCI).
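How tested: cells in 96-well plates exposed to compound for 48 hours at five concentrations. GI50: concentration for 50% inhibition of growth. The concentration for full growth arrest is given as TGI.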

Columns and labels:
Assay in all cases: inhibition of tumour cell growth, NCI panel, 48 h
[1] = system: SF-295 CNS
[2] = system: CCRF-CEM leukemia
[3] = system: LOX IMVI melanoma
[4] = system: SF-268 CNS
[5] = system: NCI-H460 lung
[6] = system: OVCAR-4 ovarian
[7] = system: M14 melanoma
[8] = system: MOLT-4 leukemia
[9] = system: HCT-116 colon
[10] = system: SK-MEL-5 melanoma
[11] = system: NCI-H522 lung
[12] = system: NCI-H226 lung
[13] = system: T-47D breast
[14] = system: U251 CNS
[15] = system: KM12 colon
[16] = system: OVCAR-3 ovarian
[17] = system: HCC-2998 colon
[18] = system: MDA-MB-231 breast
[19] = system: HT29 colon
[20] = system: SR leukemia
[21] = system: BT-549 breast
[22] = system: SNB-75 CNS
[23] = system: HCT-15 colon
[24] = system: SNB-19 CNS
[25] = system: MCF7 breast
[26] = system: A498 renal
[27] = system: HS 578T breast
[28] = system: DU-145 prostate
[29] = system: UO-31 renal

Work on `Nc1ccccc1/C=N\Nc1ccccc1` yielded a GI50 [1] of 1.63 µM, a TGI [1] of over 100 µM and a GI50 [2] of 0.431 µM. The TGI [2] was over 100 µM, the GI50 [3] was 1.29 µM and the TGI [3] was over 100 µM. It also gave a GI50 [4] of over 100 µM, a TGI [4] of over 100 µM and a GI50 [5] of 2.35 µM. For the same molecule, the TGI [5] was over 100 µM, the GI50 [6] was 3.91 µM and the TGI [6] was over 100 µM. The GI50 [7] was 4.05 µM, the TGI [7] was over 100 µM and the GI50 [8] was 26.3 µM. The TGI [8] was over 100 µM, the GI50 [9] was over 100 µM and the TGI [9] was over 100 µM. It also gave a GI50 [10] of 2.69 µM, a TGI [10] of 7.98 µM and a GI50 [11] of over 100 µM. The TGI [11] was over 100 µM, the GI50 [12] was over 100 µM and the TGI [12] was over 100 µM. The GI50 [13] was 5.04 µM, the TGI [13] was over 100 µM and the GI50 [14] was over 100 µM. It also gave a TGI [14] of over 100 µM, a GI50 [15] of 0.602 µM and a TGI [15] of over 100 µM. The GI50 [16] was 36.2 µM, the TGI [16] was over 100 µM and the GI50 [17] was 3.16 µM. For the same molecule, the TGI [17] was over 100 µM, the GI50 [18] was 8.23 µM and the TGI [18] was over 100 µM. The GI50 [19] was over 100 µM, the TGI [19] was over 100 µM and the GI50 [20] was 26.6 µM. The TGI [20] was over 100 µM, the GI50 [21] was 74.1 µM and the TGI [21] was over 100 µM. The GI50 [22] was over 100 µM, the TGI [22] was over 100 µM and the GI50 [23] was 5.13 µM. It also gave a TGI [23] of over 100 µM, a GI50 [24] of over 100 µM and a TGI [24] of over 100 µM. For the same molecule, the GI50 [25] was 8.92 µM, the TGI [25] was over 100 µM and the GI50 [26] was over 100 µM. The TGI [26] was over 100 µM, the GI50 [27] was over 100 µM and the TGI [27] was over 100 µM. The GI50 [28] was over 100 µM, the TGI [28] was over 100 µM and the GI50 [29] was 2.43 µM. It also gave a TGI [29] of over 100 µM.
